From patent US20230150951A1, “2,5- OR 2,6-DISUBSTITUTED HYDROQUINONE DERIVATIVES WITH AT LEAST ONE CARBOXY, SULFO OR AMIDO GROUP USEFUL AS MEDICAMENTS” (OM PHARMA SA, priority 2020, published 2023)

Columns and labels:
[1] = Prodrug stability in mouse plasma; format: in vitro ADME; details: for remaining after 1 h (mouse plasma): ester cleaved; for half-life: read-out: T1/2 (mouse plasma)
[2] = Prodrug stability in human plasma; format: in vitro ADME; details: for half-life: read-out: T1/2 (human plasma)
ARPE-19 cells [3] = test: Outer blood retinal barrier: ARPE-19 monolayer permeability to FITC-dextran; format: cell-based, human
Text: (§1) The mechanisms of actions involved in the anti-permeability effect of the tested treatments were explored by assessing permeability to fluorescent dextran and proinflammatory cytokines production using their mRNA expression levels by RT-PCR.
(§2) Outer Blood Retinal Barrier conditions: human retinal pigment epithelial cells (RPE) cultures ARPE-19, a spontaneously immortalised human RPE cell line were obtained from American Type Culture Collection (Manassas, Va., USA). ARPE-19 cells and they were cultured in euglycaemic conditions (D-glucose (D-Glc), 5.5 mmol/L) and hyperglycaemic conditions (D-glucose, 25 mmol/L) for 18 days at 37° C. under 5% (vol./vol.) CO2 in medium (DMEM/F12) supplemented with 10% (vol./vol.) FBS (Hyclone; Thermo Fisher Scientific, UT, USA) and 1% (vol./vol.) penicillin/streptomycin (Hyclone; Thermo Fisher Scientific). ARPE-19 cells from passage 20 were used and the medium changed every 3-4 days. For permeability studies, ARPE-19 cells were seeded at 400,000 cells/ml (80,000 RPE cells/well) in 0.33 cm^2 HTS-Transwells (Costar; Corning, N.Y., USA). For real-time PCR, western blot analysis and immunofluorescence cells are seeded at 20,000 cells/ml.
(§3) Experimental conditions and treatments: apart from the euglycemic condition, eighteen different conditions were tested in cells cultured under 25 mmol/L D-glucose:
Condition 2) Cells are treated with diabetic milieu 25 mM D-Glucose+vehicle (days 15, 16 and 17 at one application/day) in order to evaluate their effect in preventing the cell damage provoked by the diabetic milieu.
Condition 9) Cells were treated with 25 mM D-Glucose and bevacizumab (0.2 mg/ml) for 72 h (days 15, 16 and 17 at one application/day) to evaluate their potential cytotoxic effects.
Condition 10)=Diabetic milieu; cells were treated with 25 mM D-Glucose+[…] (10 ng/ml)+TNF-α (25 ng/ml)+VEGF (25 ng/ml), for 48 h (days 16 and 17 at one application/day) in order to provoke the disruption of the monolayer.
Condition 17) Cells are treated with diabetic milieu (25 mM D-Glucose+IL-1β (10 ng/ml)+TNF-α (25 ng/ml)+VEGF (25 ng/ml))+bevacizumab (0.2 mg/mL) (days 15, 16 and 17 at one application/day) in order to evaluate their effect in preventing the cell damage provoked by the diabetic milieu.
Measurement of ARPE-19 permeability: The permeability of RPE cells was determined at 18 days by measuring the apical-to basolateral movements of FITC-dextran (40 kDa) (Sigma, St Louis, […]., USA) following a procedure previously reported by Villarroel et al. Exp Eye Res, 2009, 89, 913-920.

[4] = system: human retinal endothelial cells (HRECs); test: Inner blood retinal barrier: HREC monolayer permeability to FITC-dextran; format: cell-based
Text: as §1
Inner Blood Retinal Barrier conditions: primary human retinal endothelial cells (HRECs) were obtained from a vial of cryopreserved cells purchased from Innoprot (Vizcay, Spain). These cells were isolated from human retinal tissue of cadaveric eyes digested with 0.1 mg/mL collagenase type I at 37° C. for 1 hour. Then, endothelial cells were finally selected with CD31 antibody-coated magnetic beads (DynaBeads; Dynal, Oslo, Norway). HRECs were thawed in the laboratory and cultured in endothelial basal medium (EBM) containing, 5.5 mM D-glucose, 5% FBS (Fetal Bovine Serum), 100 U/mL penicillin, 100 μg/mL streptomycin, and ECG (Endothelial Cell Growth Supplement) supplement (Innoprot, Vizcay, Spain). Human fibronectin (MerckMillipore, Madrid, Spain) at 5 μg/mL was used for cell attachment. Cells at passages 2-3 will be used for the experiments. For experimentation, HRECs were grown to confluence and then cell culture media was changed to medium supplemented with 1% FBS for 24 h and then exposed to different treatments.
Conditions treatments: The same conditions specified for the experiment in ARPE-19 cells were used.
Measurement of HREC permeability: Permeability in HREC monolayers were obtained on permeable supports at 12×10^5 cells/well (24 wells, PCF filters, Merk Millipore). Inserts were incubated for 48 hours at 37° C. in 5% CO2-air to form the monolayer. At the end, medium was serum depleted 24 h before to proceed with the treatments. The lower chamber was filled with 600 μL of complete EBM medium and the upper chamber with 100 μL of cell suspension in serum depleted (1%).
To detect changes in the permeability, 100 μg/ml of fluorescent FITC-DEXTRAN (Sigma, Madrid, Spain), was added to the upper side of the insert. Aliquots of 200 μL from the basal compartment was read in a SpectraMax Gemini (Molecular Devices, Sunnyvale, Calif.) at a wavelength of excitation/emission 485/528 nm every 30 min. Finally, the concentration of dextran was determined by extrapolation of the fluorescence reads in a standard curve. Each condition was tested in triplicate.

ARPE-19 cells [5] = test: ROS and cytokine/VEGF mRNA production by ARPE-19 monolayer cells in non-diabetic and diabetic milieu; format: cell-based, human; details: ARPE19 monolayer, 0.2 mg/mL; for ROS: ROS % to 25 mM D-Glucose; for IL-1β R.Q. mRNA / IL-6 R.Q. mRNA / IL-18 R.Q. mRNA / TNFα R.Q. mRNA / VEGF R.Q. mRNA: relative change vs 25 mM D-Gluc
Description: as §2, §3
• Proinflammatory cytokines were evaluated in ARPE-19 cells by RT-PCR and mRNA for IL-6, TNF-α, IL-1β, IL-18, VEGF, IL-10, FGF were measured using the double delta CT method 2-ΔΔCT with Cts values for the gene of interest and the endogenous human B-actin to obtain ΔCT; mRNA values were expressed as relative change with respect to the condition 25 mM D-Gluc. (ref: Livak K J, Analysis of Relative Gene Expression Data Using Real-Time Quantitative PCR and the 2-ΔΔCT Method, Methods, 2001, 25(4), 402-408, doi 10.1006/meth.2001.1262) • ROS production was evaluated using Cell Biolabs' OxiSelect™ Intracellular ROS Assay (Green Fluorescence) (Bionova, Madrid, Spain). The assay employs the cell-permeable fluorogenic probe 2′, 7′-Dichlorodihydrofluorescin diacetate (DCFH-DA), oxidized to highly fluorescent 2′, 7′-Dichlorodihydrofluorescein (DCF) by cellular ROS. • Endothelin-1, PDGF and VCAM-1 expression was analyzed in HREC monolayers by immunohistochemical analysis and by RT-PCR. • TJ expression (ZO) is analyzed in ARPE-19 and HREC monolayers by immunohistochemical analysis.

[6] = diabetic milieu (25 mM D-Gluc + VEGF, TNF-α, IL-1β)

Question: With CC(OC(=O)c1cc(NC(=O)c2cc(O)c(C(=O)Nc3ccc(O)c(C(=O)OC(C)OC(=O)C(C)(C)C)c3)cc2O)ccc1O)OC(=O)C(C)(C)C (stereo not shown) [Ic-007a-pive2, 1-(2,2-dimethylpropanoyloxy)ethyl 5-[[4-[[3-[1-(2,2-dimethylpropanoyloxy)ethoxycarbonyl]-4-hydroxy-phenyl]carbamoyl]-2,5-dihydroxy-benzoyl]amino]-2-hydroxybenzoate] as the compound, how does the “remaining after 1 h (mouse plasma)” value [1] read?
Answer: 65%

Question: And the half-life [1]?
Answer: 1.04 h

Question: What about the half-life [2] of the same compound?
Answer: > 3 h

Question: For O=C(O)c1cc(O)cc(CS(=O)(=O)Cc2cc(O)cc(C(=O)OCCN3CCOCC3)c2O)c1O [IVc-059a-mpe1, 2,5-Dihydroxy-3-[[2,5-hydroxy-3-(2-morpholinoethoxycarbonyl)phenyl]methylsulfonyl-methyl]benzoic acid], which “Stability in mouse plasma (in words)” value [1] is on record?
Answer: stable up to 60 min

Question: For CC(C)(C)C(=O)OCOC(=O)c1cc(O)cc(CS(=O)(=O)Cc2cc(O)cc(C(=O)O)c2O)c1O [IVc-059a-pivm1, 2,5-Dihydroxy-3-[[2,5-dihydroxy-3-(2,2-dimethylpropanoyloxymethoxycarbonyl)phenyl]methyl-sulfonylmethyl]benzoic acid], which “Stability in mouse plasma (in words)” value [1] is on record?
Answer: hydrolyzed rapidly

Question: And the half-life [1]?
Answer: 0.112 h

Question: What about the half-life [2] of the same compound?
Answer: > 3 h

Question: Which “remaining after 1 h (mouse plasma)” value [1] does the source give for CC(OC(=O)c1cc(NC(=O)c2cc(O)c(C(=O)Nc3ccc(O)c(C(=O)O)c3)cc2O)ccc1O)OC(=O)C(C)(C)C (stereo not shown) [Ic-007a-pive1, 5-[[4-[[3-[1-(2,2-dimethylpropanoyloxy)ethoxycarbonyl]-4-hydroxy-phenyl]carbamoyl]-2,5-dihydroxy-benzoyl]amino]-2-hydroxy-benzoic acid] here?
Answer: 49%

Question: And the half-life [1]?
Answer: 0.743 h

Question: What about the half-life [2] of the same compound?
Answer: > 3 h

Question: Which results are given for CC(C)(C)C(=O)OCOC(=O)c1cc(O)cc(CS(=O)(=O)Cc2cc(O)cc(C(=O)OCOC(=O)C(C)(C)C)c2O)c1O [IVc-059a-pivm2, 2,2-Dimethylpropanoyloxymethyl 2,5-dihydroxy-3-[[2,5-dihydroxy-3-(2,2-dimethyl-propanoyloxymethoxycarbonyl)phenyl]methylsulfonylmethyl]benzoate]?
Answer: Stability in mouse plasma (in words) [1]: hydrolyzed rapidly; half-life [1]: 0.235 h; half-life [2]: > 3 h

Question: Which “Stability in mouse plasma (in words)” value [1] does the source give for CC(OC(=O)c1cc(O)cc(CS(=O)(=O)Cc2cc(O)cc(C(=O)OC(C)OC(=O)C(C)(C)C)c2O)c1O)OC(=O)C(C)(C)C (stereo not shown) [IVc-059a-pive2, 3-[[3-[1-(2,2-Dimethylpropanoyloxy)ethoxycarbonyl]-2,5-dihydroxy-phenyl]methyl-sulfonyl-methyl]-2,5-dihydroxy-benzoic acid 1-(2,2-dimethylpropanoyloxy)ethyl ester] here?
Answer: hydrolyzed rapidly

Question: What about the “Stability in human plasma (in words)” value [2] of the same compound?
Answer: hydrolyzed rapidly

Question: What does the source list for O=C(OCCN1CCOCC1)c1cc(O)cc(CS(=O)(=O)Cc2cc(O)cc(C(=O)OCCN3CCOCC3)c2O)c1O [IVc-059a-mpe2, 2,5-Dihydroxy-3-[[2,5-hydroxy-3-(2-morpholinoethoxycarbonyl)phenyl]methylsulfonyl-methyl]benzoic acid 2-morpholinoethyl ester]?
Answer: Stability in mouse plasma (in words) [1]: stable up to 60 min; T1/2 (human plasma) [2]: > 3 h

Question: With CC(OC(=O)c1cc(O)cc(CS(=O)(=O)Cc2cc(O)cc(C(=O)O)c2O)c1O)OC(=O)C(C)(C)C (stereo not shown) [IVc-059a-pive1, 3-[[3-[1-(2,2-Dimethylpropanoyloxy)ethoxycarbonyl]-2,5-dihydroxy-phenyl]methylsulfonyl-methyl]-2,5-dihydroxy-benzoic acid] as the compound, how does the “Stability in mouse plasma (in words)” value [1] read?
Answer: Hydrolyzed Rapidly

Question: Which results are given for “bevacizumab: comparator in ARPE-19 and HREC permeability experiments [reference compound]”?
Answer: % permeability ARPE19 (ARPE-19 cells [3]; No 9: 25 mM D-Gluc + 0.2 mg/mL): 109.5 ± 22.9%; % permeability ARPE19 (ARPE-19 cells [3]; No 17: 25 mM D-Gluc + 0.2 mg/mL + VEGF, TNF-α, (diabetic milieu)): 120.7 ± 30.1%; % permeability HREC ([4]; No 9: 25 mM D-Gluc + 0.2 mg/mL): 127.1 ± 26.2%; % permeability HREC ([4]; No 17: 25 mM D-Gluc + 0.2 mg/mL + VEGF, TNF-α, IL-β (diabetic milieu)): 129.0 ± 35.3%; ROS (ARPE-19 cells [5]; 25 mM D-Gluc): 110 ± 54%; IL-1β R.Q. mRNA (ARPE-19 cells [5]; 25 mM D-Gluc): 1.46 ± 0.72 R.Q.; IL-6 R.Q. mRNA (ARPE-19 cells [5]; 25 mM D-Gluc): 0.64 ± 0.34 R.Q.; IL-18 R.Q. mRNA (ARPE-19 cells [5]; 25 mM D-Gluc): 0.09 ± 0.01 R.Q.; TNFα R.Q. mRNA (ARPE-19 cells [5]; 25 mM D-Gluc): 0.46 ± 0.63 R.Q.; VEGF R.Q. mRNA (ARPE-19 cells [5]; 25 mM D-Gluc): 1.68 ± 0.83 R.Q.; ROS (ARPE-19 cells [5]; [6]): 111 ± 50%; IL-1β R.Q. mRNA (ARPE-19 cells [5]; [6]): 31.22 ± 12.65 R.Q.; IL-6 R.Q. mRNA (ARPE-19 cells [5]; [6]): 32.35 ± 13.48 R.Q.; IL-18 R.Q. mRNA (ARPE-19 cells [5]; [6]): 0.53 ± 0.04 R.Q.; TNFα R.Q. mRNA (ARPE-19 cells [5]; [6]): 1.37 ± 0.27 R.Q.; VEGF R.Q. mRNA (ARPE-19 cells [5]; [6]): 3.88 ± 0.68 R.Q.
